Measurements published in ChEMBL document CHEMBL1201862, “PubChem BioAssay data set” (2004).
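Compound exposure: 48 hours, 5 concentrations, 96-well plates. Abbreviation: GI50, concentration required for 50% inhibition of growth.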 The source made the active and inactive calls. Rule as the data show it: active = GI50 up to about 1.1 µM and inactive = higher.

Key:
Assay in all cases: growth of human tumour cells (NCI), 48 h
786-0 = tested on: 786-0
BT-549 = tested on: BT-549
CCRF-CEM = tested on: CCRF-CEM
HCT-15 = tested on: HCT-15
HL-60 = tested on: HL-60
HT-29 = tested on: HT-29
Hs-578T = tested on: Hs-578T
K562 = tested on: K562
KM12 = tested on: KM12
MDA-N = tested on: MDA-N
Malme-3M = tested on: Malme-3M
NCI-H226 = tested on: NCI-H226
NCI-H460 = tested on: NCI-H460
NCI-H522 = tested on: NCI-H522
OVCAR-4 = tested on: OVCAR-4
SF-295 = tested on: SF-295
SK-OV-3 = tested on: SK-OV-3
SR = tested on: SR
SW-620 = tested on: SW-620
U-251 = tested on: U-251

Structure (SMILES)	GI50 (786-0)	GI50 (BT-549)	GI50 (CCRF-CEM)	GI50 (HCT-15)	GI50 (HL-60)	GI50 (HT-29)	GI50 (Hs-578T)	GI50 (K562)	GI50 (KM12)	GI50 (MDA-N)	GI50 (Malme-3M)	GI50 (NCI-H226)	GI50 (NCI-H460)	GI50 (NCI-H522)	GI50 (OVCAR-4)	GI50 (SF-295)	GI50 (SK-OV-3)	GI50 (SR)	GI50 (SW-620)	GI50 (U-251)
Cc1nn(-c2cc(Cl)ccc2[N+](=O)[O-])c(C)c1Cl	> 100 µM (inactive)	42.5 µM (inactive)	37.5 µM (inactive)	40.6 µM	91.8 µM (inactive)	> 100 µM (inactive)	> 100 µM (inactive)	20.3 µM (inactive)	> 100 µM (inactive)	> 100 µM (inactive)	> 100 µM (inactive)	65.8 µM (inactive)	70.5 µM (inactive)	> 100 µM (inactive)	> 100 µM (inactive)	> 100 µM (inactive)	> 100 µM (inactive)	> 100 µM (inactive)	> 100 µM (inactive)	> 100 µM (inactive)
C[n+]1ccccc1/C1=c2\cc/c([nH]2)=C(\c2cccc[n+]2C)C2=N/C(=C(/c3cccc[n+]3C)C3C=CC(N3)/C(c3cccc[n+]3C)=C3/C=CC1=N3)C=C2	> 100 µM (inactive)	> 100 µM (inactive)	3.26 µM (inactive)	> 100 µM	> 100 µM (inactive)	39.3 µM (inactive)	> 100 µM (inactive)	26.7 µM (inactive)	62.4 µM (inactive)	> 100 µM (inactive)	> 100 µM (inactive)	> 100 µM (inactive)	40.9 µM (inactive)	> 100 µM (inactive)	> 100 µM (inactive)	> 100 µM (inactive)	> 100 µM (inactive)	15.6 µM (inactive)	73.3 µM (inactive)	> 100 µM (inactive)
C[C@H]1COC2=C1C(=O)C(=O)c1c2ccc2c1CCCC2(C)C [CRYPTOTANSHINONE]	3.42 µM (inactive)	2.11 µM (inactive)	4.31 µM (inactive)	1.94 µM	2.39 µM (inactive)	2.18 µM (inactive)	2.29 µM (inactive)	3.61 µM (inactive)	2.19 µM (inactive)	1.61 µM (inactive)	0.305 µM (active)	3.24 µM (inactive)	1.63 µM (inactive)	2.01 µM (inactive)	12.2 µM (inactive)	1.68 µM (inactive)	11.6 µM (inactive)	3.42 µM (inactive)	1.73 µM (inactive)	2 µM (inactive)
C=C1C(=O)O[C@H]2[C@@H]3O[C@@](C)(CC/C=C(\C)CCC[C@@H]2C)[C@H](O)C[C@@H]13	2.75 µM (inactive)	2.79 µM (inactive)	10.2 µM (inactive)	2.56 µM	2.34 µM (inactive)	1.38 µM (inactive)	3.29 µM (inactive)	1.25 µM (inactive)	10.8 µM (inactive)	2.36 µM (inactive)	6.32 µM (inactive)	2.11 µM (inactive)	2.99 µM (inactive)	1.61 µM (inactive)	7.18 µM (inactive)	13.9 µM (inactive)	17.6 µM (inactive)	3.16 µM (inactive)	7.96 µM (inactive)	13.5 µM (inactive)
Nc1cc2c3c(cccc3c1)C(=O)N(c1ccc(OCCN3CCCCC3)cc1)C2=O	16.9 µM (inactive)	19.7 µM (inactive)	21.2 µM (inactive)	12.7 µM	4.89 µM (inactive)	10.2 µM (inactive)	27.7 µM (inactive)	12.1 µM (inactive)	20 µM (inactive)	18.5 µM (inactive)	14.5 µM (inactive)	18.6 µM (inactive)	–	18.5 µM (inactive)	17.1 µM (inactive)	16.9 µM (inactive)	15.1 µM (inactive)	14 µM (inactive)	20.6 µM (inactive)	22 µM (inactive)
CC(=O)Oc1ccc2c(c1)c1c(=O)oc(C)nc1n2Cc1ccccc1	39.6 µM (inactive)	17.4 µM (inactive)	> 64.3 µM (inactive)	26.7 µM	57.7 µM (inactive)	> 89.3 µM (inactive)	> 73.6 µM (inactive)	50.8 µM (inactive)	23.6 µM (inactive)	27.5 µM (inactive)	73.6 µM (inactive)	24.8 µM (inactive)	> 65.2 µM (inactive)	12 µM (inactive)	> 75.7 µM (inactive)	43.6 µM (inactive)	28.7 µM (inactive)	> 52.4 µM (inactive)	57.9 µM (inactive)	30.9 µM (inactive)
COc1ccccc1-n1nnc2c(N)nc(N)nc21	> 100 µM (inactive)	> 100 µM (inactive)	> 100 µM (inactive)	> 100 µM	> 100 µM (inactive)	> 100 µM (inactive)	> 100 µM (inactive)	> 100 µM (inactive)	> 100 µM (inactive)	> 100 µM (inactive)	> 100 µM (inactive)	> 100 µM (inactive)	> 100 µM (inactive)	> 100 µM (inactive)	> 100 µM (inactive)	> 100 µM (inactive)	> 100 µM (inactive)	> 100 µM (inactive)	> 100 µM (inactive)	> 100 µM (inactive)
O=C(NNC(=S)NC1CCCCC1)C12CC3CC(CC(C3)C1)C2	61.8 µM (inactive)	> 100 µM (inactive)	> 100 µM (inactive)	> 100 µM	> 100 µM (inactive)	> 100 µM (inactive)	> 100 µM (inactive)	> 100 µM (inactive)	> 100 µM (inactive)	> 100 µM (inactive)	> 100 µM (inactive)	> 100 µM (inactive)	> 100 µM (inactive)	> 100 µM (inactive)	> 100 µM (inactive)	> 100 µM (inactive)	> 100 µM (inactive)	0.637 µM (active)	> 100 µM (inactive)	> 100 µM (inactive)
COC1CC(CC2CCC(C)C(C(C)C(=O)O)O2)OC2(OC(C)(C3CCC(C)(C4OC(C5OC(O)(CO)C(C)CC5C)CC4C)O3)CC2C)C1C (stereo not drawn)	1.08 µM (active)	0.3 µM (active)	0.0228 µM (active)	1.85 µM	0.0363 µM (active)	0.183 µM (active)	0.91 µM (active)	0.0502 µM (active)	0.773 µM (active)	0.757 µM (active)	0.0923 µM (active)	1.21 µM (inactive)	0.402 µM (active)	0.0217 µM (active)	6.56 µM (inactive)	1.15 µM (inactive)	7.4 µM (inactive)	0.0634 µM (active)	1.52 µM (inactive)	0.0836 µM (active)
COc1cc2c3c4c1OCc1c5c(cc(c1-4)CC3[N+](C)(C)CC2)OCO5 (stereo not drawn)	4.33 µM (inactive)	2.83 µM (inactive)	> 100 µM (inactive)	> 100 µM	> 100 µM (inactive)	> 100 µM (inactive)	4.18 µM (inactive)	> 86.9 µM (inactive)	> 100 µM (inactive)	> 100 µM (inactive)	60.5 µM (inactive)	32.3 µM (inactive)	> 100 µM (inactive)	27.1 µM (inactive)	> 100 µM (inactive)	6.05 µM (inactive)	> 100 µM (inactive)	49.8 µM (inactive)	> 100 µM (inactive)	4.9 µM (inactive)
CCOC(=O)N1CCN(Cc2cc(=O)n3cc(C)ccc3n2)CC1	> 100 µM (inactive)	> 100 µM (inactive)	> 100 µM (inactive)	> 100 µM	> 100 µM (inactive)	> 100 µM (inactive)	> 100 µM (inactive)	> 100 µM (inactive)	> 100 µM (inactive)	> 100 µM (inactive)	> 100 µM (inactive)	> 100 µM (inactive)	> 100 µM (inactive)	> 100 µM (inactive)	> 100 µM (inactive)	> 100 µM (inactive)	> 100 µM (inactive)	> 100 µM (inactive)	> 100 µM (inactive)	> 100 µM (inactive)
C=C1N(S(=O)(=O)c2ccc(C)cc2)C(=O)OCC12CCCC2	> 100 µM (inactive)	> 100 µM (inactive)	65.5 µM (inactive)	94 µM	40.3 µM (inactive)	54.7 µM (inactive)	32.5 µM (inactive)	94.2 µM (inactive)	> 100 µM (inactive)	> 100 µM (inactive)	> 100 µM (inactive)	> 100 µM (inactive)	96.4 µM (inactive)	> 100 µM (inactive)	72.6 µM (inactive)	> 100 µM (inactive)	41.4 µM (inactive)	45.7 µM (inactive)	> 100 µM (inactive)	76 µM (inactive)
NCC[Se][Se]CCN	14 µM (inactive)	14.4 µM (inactive)	5.12 µM (inactive)	6.24 µM	1.8 µM (inactive)	10 µM (inactive)	12.4 µM (inactive)	16.6 µM (inactive)	8.05 µM (inactive)	10.9 µM (inactive)	11.9 µM (inactive)	11 µM (inactive)	6.4 µM (inactive)	10.4 µM (inactive)	11.8 µM (inactive)	3.2 µM (inactive)	8.15 µM (inactive)	10.1 µM (inactive)	10.7 µM (inactive)	7.41 µM (inactive)
CCOC(=O)c1sc2nc(SC)nc3c2c1NCN3c1ccc2c(c1)OCO2	4.34 µM (inactive)	30.1 µM (inactive)	14.6 µM (inactive)	52.5 µM	52 µM (inactive)	31.3 µM (inactive)	3.58 µM (inactive)	35 µM (inactive)	> 100 µM (inactive)	44.3 µM (inactive)	17.9 µM (inactive)	25.8 µM (inactive)	–	31.1 µM (inactive)	5.2 µM (inactive)	10.9 µM (inactive)	10.7 µM (inactive)	39.3 µM (inactive)	17.2 µM (inactive)	7.03 µM (inactive)
